Laboratory results taken from ChEMBL document CHEMBL5518218, “Discovery of Novel PD-L1 Small-Molecular Inhibitors with Potent In Vivo Anti-tumor Immune Activity” (J Med Chem, 2024).
Calls of active or inactive are those of the source. No cut-off for these calls is given here.

How the values were obtained:
[1] = Acute toxicity in mouse assessed as mortality at 1000 mg/kg, po administered as single dose for 14 days; assay type: organism-based; conditions: in vivo, 336 h, time 14 day
[2] = Prodrug conversion in Sprague-Dawley rat assessed as Tmax of (2-(benzo[c][1,2,5]oxadiazol-5-ylmethoxy)-5-chloro-4-((2-fluoro-3'-(3-(4-hydroxypiperidin-1-yl)propoxy)-[1,1'-biphenyl]-3-yl)methoxy)benzyl)-D-serine at 45 mg/kg, po measured upto 24 hrs by LC-MS/MS analysis; assay type: ADME, organism-based; conditions: in vivo
[3] = Prodrug conversion in C57BL/6 mouse assessed as Tmax of (2-(benzo[c][1,2,5]oxadiazol-5-ylmethoxy)-5-chloro-4-((2-fluoro-3'-(3-(4-hydroxypiperidin-1-yl)propoxy)-[1,1'-biphenyl]-3-yl)methoxy)benzyl)-D-serine at 2 mg/kg, iv measured upto 24 hrs by LC-MS/MS analysis; assay type: ADME, organism-based; conditions: in vivo
[4] = Prodrug conversion in C57BL/6 mouse assessed as AUC (0 to t) of (2-(benzo[c][1,2,5]oxadiazol-5-ylmethoxy)-5-chloro-4-((2-fluoro-3'-(3-(4-hydroxypiperidin-1-yl)propoxy)-[1,1'-biphenyl]-3-yl)methoxy)benzyl)-D-serine at 10 mg/kg, po measured upto 24 hrs by LC-MS/MS analysis; assay type: ADME, organism-based; conditions: in vivo
MC-38 [5] = assay: Antitumor activity against mouse MC38 cells implanted in C57BL/6J mouse assessed as tumor growth inhibition at 25 mg/kg, po measured for 20 days; assay type: functional; conditions: MC-38, 480 h, time 20 day, read-out: TGI
[6] = Prodrug conversion in C57BL/6 mouse assessed as Cmax of (2-(benzo[c][1,2,5]oxadiazol-5-ylmethoxy)-5-chloro-4-((2-fluoro-3'-(3-(4-hydroxypiperidin-1-yl)propoxy)-[1,1'-biphenyl]-3-yl)methoxy)benzyl)-D-serine at 2 mg/kg, iv measured upto 24 hrs by LC-MS/MS analysis; assay type: ADME, organism-based; conditions: in vivo
[7] = Prodrug conversion in Sprague-Dawley rat assessed as AUC (0 to t) of (2-(benzo[c][1,2,5]oxadiazol-5-ylmethoxy)-5-chloro-4-((2-fluoro-3'-(3-(4-hydroxypiperidin-1-yl)propoxy)-[1,1'-biphenyl]-3-yl)methoxy)benzyl)-D-serine at 9 mg/kg, iv measured upto 24 hrs by LC-MS/MS analysis; assay type: ADME, organism-based; conditions: in vivo
[8] = Prodrug conversion in Sprague-Dawley rat assessed as half life of (2-(benzo[c][1,2,5]oxadiazol-5-ylmethoxy)-5-chloro-4-((2-fluoro-3'-(3-(4-hydroxypiperidin-1-yl)propoxy)-[1,1'-biphenyl]-3-yl)methoxy)benzyl)-D-serine at 9 mg/kg, iv measured upto 24 hrs by LC-MS/MS analysis; assay type: ADME, organism-based; conditions: in vivo
[9] = Water solubility of the compound; assay type: physicochemical
[10] = Acute toxicity in mouse assessed as signs of distress at 1000 mg/kg, po administered as single dose for 14 days; assay type: organism-based; conditions: in vivo, 336 h, time 14 day
[11] = Prodrug conversion in C57BL/6 mouse assessed as Tmax of (2-(benzo[c][1,2,5]oxadiazol-5-ylmethoxy)-5-chloro-4-((2-fluoro-3'-(3-(4-hydroxypiperidin-1-yl)propoxy)-[1,1'-biphenyl]-3-yl)methoxy)benzyl)-D-serine at 10 mg/kg, po measured upto 24 hrs by LC-MS/MS analysis; assay type: ADME, organism-based; conditions: in vivo
[12] = Prodrug conversion in C57BL/6 mouse assessed as clearance of (2-(benzo[c][1,2,5]oxadiazol-5-ylmethoxy)-5-chloro-4-((2-fluoro-3'-(3-(4-hydroxypiperidin-1-yl)propoxy)-[1,1'-biphenyl]-3-yl)methoxy)benzyl)-D-serine at 2 mg/kg, iv measured upto 24 hrs by LC-MS/MS analysis; assay type: ADME, organism-based; conditions: in vivo
[13] = Prodrug conversion in C57BL/6 mouse assessed as oral bioavailability of (2-(benzo[c][1,2,5]oxadiazol-5-ylmethoxy)-5-chloro-4-((2-fluoro-3'-(3-(4-hydroxypiperidin-1-yl)propoxy)-[1,1'-biphenyl]-3-yl)methoxy)benzyl)-D-serine at 10 mg/kg measured upto 24 hrs by LC-MS/MS analysis; assay type: ADME, organism-based; conditions: in vivo
[14] = Prodrug conversion in Sprague-Dawley rat assessed as Cmax of (2-(benzo[c][1,2,5]oxadiazol-5-ylmethoxy)-5-chloro-4-((2-fluoro-3'-(3-(4-hydroxypiperidin-1-yl)propoxy)-[1,1'-biphenyl]-3-yl)methoxy)benzyl)-D-serine at 9 mg/kg, iv measured upto 24 hrs by LC-MS/MS analysis; assay type: ADME, organism-based; conditions: in vivo
CT26 [15] = assay: Antitumor activity against mouse CT26 cells implanted in BALB/c mouse assessed as tumor growth inhibition at 10 mg/kg, ip measured at 8 to 14 days; assay type: functional; conditions: time 8-14 day, read-out: TGI
[16] = Prodrug conversion in Sprague-Dawley rat assessed as clearance of (2-(benzo[c][1,2,5]oxadiazol-5-ylmethoxy)-5-chloro-4-((2-fluoro-3'-(3-(4-hydroxypiperidin-1-yl)propoxy)-[1,1'-biphenyl]-3-yl)methoxy)benzyl)-D-serine at 9 mg/kg, iv measured upto 24 hrs by LC-MS/MS analysis; assay type: ADME, organism-based; conditions: in vivo
[17] = Prodrug conversion in Sprague-Dawley rat assessed as Cmax of (2-(benzo[c][1,2,5]oxadiazol-5-ylmethoxy)-5-chloro-4-((2-fluoro-3'-(3-(4-hydroxypiperidin-1-yl)propoxy)-[1,1'-biphenyl]-3-yl)methoxy)benzyl)-D-serine at 45 mg/kg, po measured upto 24 hrs by LC-MS/MS analysis; assay type: ADME, organism-based; conditions: in vivo
[18] = Prodrug conversion in Sprague-Dawley rat assessed as half life of (2-(benzo[c][1,2,5]oxadiazol-5-ylmethoxy)-5-chloro-4-((2-fluoro-3'-(3-(4-hydroxypiperidin-1-yl)propoxy)-[1,1'-biphenyl]-3-yl)methoxy)benzyl)-D-serine at 45 mg/kg measured upto 24 hrs by LC-MS/MS analysis; assay type: ADME, organism-based; conditions: in vivo, po
MC-38 [19] = assay: Antitumor activity against mouse MC38 cells implanted in po dosed C57BL/6J mouse assessed as reduction in tumor growth; assay type: functional, organism-based; conditions: dose 5-25 mg/kg
MC-38 [20] = assay: Antitumor activity against mouse MC38 cells implanted in C57BL/6J mouse assessed as tumor growth inhibition at 5 mg/kg, po measured for 20 days; assay type: functional; conditions: MC-38, 480 h, time 20 day, read-out: TGI
MC-38 [21] = assay: Cytotoxicity against mouse MC38 cells assessed as effect on cell viability at 0.07 to 150 uM incubated for 48 hrs by CCK-8 assay; assay type: functional, cell-based; conditions: dose 0.07-150 µM
[22] = target: Programmed cell death protein 1/Programmed cell death 1 ligand 1 (Homo sapiens, UniProt Q9NZQ7); assay: Inhibition of PD-1/PD-L1 interaction (unknown origin) incubated for 15 min by HTRF assay; assay type: protein-complex assay
Chain of Programmed cell death protein 1/Programmed cell death 1 ligand 1 (Q15116 whole entry): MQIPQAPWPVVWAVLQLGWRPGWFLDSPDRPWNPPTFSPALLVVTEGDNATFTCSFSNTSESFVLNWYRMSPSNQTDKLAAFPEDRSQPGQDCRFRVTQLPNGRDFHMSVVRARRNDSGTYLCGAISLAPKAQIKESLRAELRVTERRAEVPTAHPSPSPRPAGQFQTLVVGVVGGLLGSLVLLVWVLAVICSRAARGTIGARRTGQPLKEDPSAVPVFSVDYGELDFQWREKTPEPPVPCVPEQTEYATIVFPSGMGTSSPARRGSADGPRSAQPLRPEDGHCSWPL
Chain of Programmed cell death protein 1/Programmed cell death 1 ligand 1 (Q9NZQ7 whole entry): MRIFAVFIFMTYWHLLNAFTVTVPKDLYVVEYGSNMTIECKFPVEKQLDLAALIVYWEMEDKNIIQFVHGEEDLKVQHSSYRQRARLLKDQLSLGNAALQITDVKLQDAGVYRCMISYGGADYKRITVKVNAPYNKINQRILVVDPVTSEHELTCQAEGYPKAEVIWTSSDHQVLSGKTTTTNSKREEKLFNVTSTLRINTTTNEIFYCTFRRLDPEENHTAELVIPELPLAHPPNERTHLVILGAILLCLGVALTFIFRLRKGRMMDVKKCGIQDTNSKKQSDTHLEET

CT26 [23] = assay: Cytotoxicity against mouse CT26 cells assessed as effect on cell viability at 0.07 to 150 uM incubated for 48 hrs by CCK-8 assay; assay type: functional, cell-based; conditions: dose 0.07-150 µM
[24] = Prodrug conversion in Sprague-Dawley rat assessed as Tmax of (2-(benzo[c][1,2,5]oxadiazol-5-ylmethoxy)-5-chloro-4-((2-fluoro-3'-(3-(4-hydroxypiperidin-1-yl)propoxy)-[1,1'-biphenyl]-3-yl)methoxy)benzyl)-D-serine at 9 mg/kg, iv measured upto 24 hrs by LC-MS/MS analysis; assay type: ADME, organism-based; conditions: in vivo
[25] = Prodrug conversion in C57BL/6 mouse assessed as Cmax of (2-(benzo[c][1,2,5]oxadiazol-5-ylmethoxy)-5-chloro-4-((2-fluoro-3'-(3-(4-hydroxypiperidin-1-yl)propoxy)-[1,1'-biphenyl]-3-yl)methoxy)benzyl)-D-serine at 10 mg/kg, po measured upto 24 hrs by LC-MS/MS analysis; assay type: ADME, organism-based; conditions: in vivo

CCOC(=O)[C@@H](CO)NCc1cc(Cl)c(OCc2cccc(-c3cccc(OCCCN4CCC(O)CC4)c3)c2F)cc1OCc1ccc2nonc2c1.Cl.Cl
Activity [1]: Non-Toxic | Tmax [2]: 4 h | Tmax [3]: 4.8 min | AUCt [4]: 315.6 ng·h/mL | inhibition in vivo at 25 mg/kg (MC-38 [5]): 73.6% | Cmax [6]: 872.3 ng/mL | AUCt [7]: 2373.5 ng·h/mL | t1/2 [8]: 7.9 h | solubility [9]: 9.52 µM | Activity [10]: Non-Toxic | Tmax [11]: 0.7 h | CL [12]: 61.845 mL/min/kg | F [13]: 11.5% | Cmax [14]: 3760.7 ng/mL | inhibition in vivo at 10 mg/kg (CT26 [15]): 21.9% | CL [16]: 23.77 mL/min/kg | Cmax [17]: 49.8 ng/mL | t1/2 [18]: 4.3 h | Activity (MC-38 [19]): Dose-Dependent Effect | inhibition in vivo at 5 mg/kg (MC-38 [20]): 49.2% | Activity (MC-38 [21]): inactive | IC50 [22]: 786 nM | Activity (CT26 [23]): inactive | Tmax [24]: 4.8 min | Cmax [25]: 255.7 ng/mL
